# Several values for one entry are separate records, joined by “and”; a condition that tells them apart may be missing. Identical values can stand only once.
# Target: T1, TbERK8 (Trypanosoma brucei brucei, UniProt Q38B88)
# T1 sequence (Q38B88 1-442): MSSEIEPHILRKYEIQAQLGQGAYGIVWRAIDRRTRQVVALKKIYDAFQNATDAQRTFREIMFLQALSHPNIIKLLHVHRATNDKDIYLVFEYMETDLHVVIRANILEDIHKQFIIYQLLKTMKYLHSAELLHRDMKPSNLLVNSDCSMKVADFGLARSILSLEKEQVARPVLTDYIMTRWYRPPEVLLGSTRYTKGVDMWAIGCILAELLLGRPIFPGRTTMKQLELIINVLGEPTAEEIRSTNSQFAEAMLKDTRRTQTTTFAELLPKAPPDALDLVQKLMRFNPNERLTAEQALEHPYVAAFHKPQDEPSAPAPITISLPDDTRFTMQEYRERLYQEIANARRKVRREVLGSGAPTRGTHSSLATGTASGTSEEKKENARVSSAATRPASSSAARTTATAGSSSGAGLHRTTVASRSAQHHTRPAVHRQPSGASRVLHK
# Assay: Luciferase-based kinase inhibition assay (ATP luminescence), GST-tagged TbERK8 with MBP substrate
# Assay type: biochemical
# Set-up: raw luminescence, TbERK8: unit of the concentration uncertain
# Details: for raw luminescence, TbERK8: replicate wells; for Luminescence Raw (Kinase-Glo): TbERK8
# Description: Escherichia coli strain Rosetta 2 (DE3) (Cat# 71397, MilliporeSigma, Burlington, MA) was transformed with the plasmid pGEX2T expressing the full-length hERK8 coding region or pGSTAg expressing the full-length TbERK8 coding region. One liter of Terrific Broth media containing 100 μg/ml Ampicillin and 30 μg/ml chloramphenicol in 2 L baffled flasks was inoculated with 25 mL from an overnight culture of Rosetta 2 strains harboring either the pGEX2T-hERK8 or pGSTAg-TbERK8 plasmid. Two baffled flasks were inoculated with each overnight strain and incubated and shaken at 175 RPM in a New Brunswick Innova 44R Incubator Shaker (Fischer Scientific, Pittsburgh, PA) at 37 °C until the cultures reached an O.D.600 of 0.94. Once the cultures in the flask reached the target O.D.600, the flasks were cooled to 4 °C in an ice water bath. The cooled cultures were induced by adding isopropyl β-D-1-thiogalactopyranoside (IPTG) to a final concentration of 0.1 mM and shaken at 16 °C for 16 hours at 175 RPM in a New Brunswick Innova 44R Incubator Shaker (Fischer Scientific, Pittsburgh, PA). On the next day, the cultures were pelleted by centrifugation at 9000 xg in a JLA 10.500 rotor (Beckman Coulter; Brea, CA), and the media was decanted. The pellet was flash-frozen in liquid nitrogen and then thawed on ice. The thawed pellet was resuspended in lysis buffer (25 mM Tris, 75 mM NaCl, 0.5% TritonX-100 and 0.5% Nonidet P-40, 1 mM phenylmethanesulfonyl fluoride, 1 mM benzamidine⋅HCl) and lysed using a microfluidizer M-110P from Microfluidics (Westwood, MA). The crude lysates were clarified by centrifugation at 140,000 xg in a 45Ti rotor (Beckman Coulter, Brea, CA) for 30 min at 4°C. The clarified lysate was loaded by gravity to a 3 mL glutathione agarose resin column (Cat# G-250–10, GOLDBIO, St. Louis, MO) formed in a 1.5 × 20 cm glass chromatography column (Cat# 7371522, Bio-Rad, Hercules, CA). The column was washed with 30 mL of PBS (pH 7.4) containing 1 mM DTT. Elution buffer (50 mM Tris buffer pH 8.0 containing 10 mM reduced glutathione and 1 mM DTT was added to the washed column), and 1 mL fractions were collected by gravity and examined by SDS-PAGE stained by Coomassie dye. Peak fractions pooled from the elution were dialyzed (4x 1:500 dilutions) in kinase buffer (30 mM Tris, pH 7.4, 10 mM MgCl2, 1 mM DTT, 5% glycerol).
# We performed kinase assays in buffer K (30 mM Tris pH 7.4, 10 mM MgCl2, 1 mM DTT, 5% glycerol, 50 μM ATP, and 0.1 mg/mL BSA) at 30°C for 30 min in 30 μL reactions. GST-tagged HsERK8 and TbERK8 were tested using myelin basic protein (MBP) (Cat# 13–110, Millipore, Darmstadt, Germany) as the substrate at increasing concentrations to determine the optimal activity for the assay. ATP consumption was determined by adding equal volumes of the kinase assay reagent (Promega, Cat# V5601, Madison, WI) following the manufacturer’s protocol. Luminescence was measured using the microplate reader (SpectraMax L, Molecular Devices, Sunnyvale, CA).
# These compounds were screened for kinase inhibition utilizing a luciferase-based assay. Briefly, the kinases were tested using MBP as the substrate at a 14-fold molar excess in 384-well flat-bottom white plates (BRANDTECH Scientific, Cat# 781681, Essex, CT). These compounds were tested at concentrations ranging from […] to 150 nM. The kinases plus MBP substrate reactions were incubated with each inhibitor for 30 minutes at 30°C. Equal volumes of kinase assay mix Promega (Cat# V5601, Madison, WI) were added to the kinase/inhibitor reaction after 30 minutes, following the manufacturer’s protocol. ATP luminescence was measured using a microplate reader (SpectraMax L, Molecular Devices, Sunnyvale, CA). IC50 values were calculated from assays done in triplicate by fitting the data using Prism 8.1.1 (GraphPad).
structure (smiles),measurement,setting,value
C[C@]12C=CC(=O)C=C1CC[C@@H]1[C@@H]2[C@@H](O)C[C@@]2(C)[C@H]1CC[C@]2(O)C(=O)CO [Prednisolone],IC50,,> 10 mM
same,"raw luminescence, TbERK8","0.00015 (unit uncertain) compound, sheet ADP_ATP_glo081724 (3)",151.546 RLU and 115.356 RLU and 183.213 RLU
same,"raw luminescence, TbERK8","0.00015 (unit uncertain) compound, sheet Kinase_glo 08142024 (2)",851.739 RLU and 832.717 RLU and 648.843 RLU
same,"raw luminescence, TbERK8","0.00015 (unit uncertain) compound, sheet Kinase_glo_080924_IFPS (2)",2863.49 RLU and 2847.77 RLU and 2549.07 RLU
same,"raw luminescence, TbERK8","0.00061 (unit uncertain) compound, sheet ADP_ATP_glo081724 (3)",126.666 RLU and 99.523 RLU and 185.475 RLU
same,"raw luminescence, TbERK8","0.00061 (unit uncertain) compound, sheet Kinase_glo 08142024 (2)",699.567 RLU and 777.766 RLU and 826.377 RLU
same,"raw luminescence, TbERK8","0.00061 (unit uncertain) compound, sheet Kinase_glo_080924_IFPS (2)",1033.1 RLU and 1001.66 RLU and 918.564 RLU
same,"raw luminescence, TbERK8","0.00244 (unit uncertain) compound, sheet ADP_ATP_glo081724 (3)",151.546 RLU and 108.57 RLU and 214.879 RLU
same,"raw luminescence, TbERK8","0.00244 (unit uncertain) compound, sheet Kinase_glo 08142024 (2)",716.475 RLU and 665.751 RLU and 646.73 RLU
same,"raw luminescence, TbERK8","0.00244 (unit uncertain) compound, sheet Kinase_glo_080924_IFPS (2)",2143.15 RLU and 2092.68 RLU and 2029.79 RLU
same,"raw luminescence, TbERK8","0.00977 (unit uncertain) compound, sheet ADP_ATP_glo081724 (3)",255.593 RLU and 147.022 RLU and 271.426 RLU
same,"raw luminescence, TbERK8","0.00977 (unit uncertain) compound, sheet Kinase_glo 08142024 (2)",437.494 RLU and 490.331 RLU and 469.196 RLU
same,"raw luminescence, TbERK8","0.00977 (unit uncertain) compound, sheet Kinase_glo_080924_IFPS (2)",2030.86 RLU and 2806.27 RLU and 2958.99 RLU
same,"raw luminescence, TbERK8","0.03906 (unit uncertain) compound, sheet ADP_ATP_glo081724 (3)",165.118 RLU and 117.618 RLU and 199.046 RLU
same,"raw luminescence, TbERK8","0.03906 (unit uncertain) compound, sheet Kinase_glo 08142024 (2)",667.865 RLU and 653.07 RLU and 765.085 RLU
same,"raw luminescence, TbERK8","0.03906 (unit uncertain) compound, sheet Kinase_glo_080924_IFPS (2)",2637.83 RLU and 2496.34 RLU and 2622.11 RLU
same,"raw luminescence, TbERK8","0.15625 (unit uncertain) compound, sheet ADP_ATP_glo081724 (3)",334.759 RLU and 251.069 RLU and 300.831 RLU
same,"raw luminescence, TbERK8","0.15625 (unit uncertain) compound, sheet Kinase_glo 08142024 (2)",1037.73 RLU and 1041.95 RLU and 1113.81 RLU
same,"raw luminescence, TbERK8","0.15625 (unit uncertain) compound, sheet Kinase_glo_080924_IFPS (2)",2180.42 RLU and 2133.34 RLU and 2264.78 RLU
same,"raw luminescence, TbERK8","0.62500 (unit uncertain) compound, sheet ADP_ATP_glo081724 (3)",495.353 RLU and 366.425 RLU and 545.114 RLU
same,"raw luminescence, TbERK8","0.62500 (unit uncertain) compound, sheet Kinase_glo 08142024 (2)",1265.98 RLU and 1276.55 RLU and 1342.07 RLU
same,"raw luminescence, TbERK8","0.62500 (unit uncertain) compound, sheet Kinase_glo_080924_IFPS (2)",3642.09 RLU and 3777.07 RLU and 3651.3 RLU
same,"raw luminescence, TbERK8","2.50000 (unit uncertain) compound, sheet ADP_ATP_glo081724 (3)",791.659 RLU and 658.208 RLU and 870.825 RLU
same,"raw luminescence, TbERK8","2.50000 (unit uncertain) compound, sheet Kinase_glo 08142024 (2)",2855.33 RLU and 2339.64 RLU and 2348.09 RLU
same,"raw luminescence, TbERK8","2.50000 (unit uncertain) compound, sheet Kinase_glo_080924_IFPS (2)",13901.1 RLU and 13588.9 RLU and 13357.6 RLU
same,"raw luminescence, TbERK8","10.00000 (unit uncertain) compound, sheet ADP_ATP_glo081724 (3)",8500.16 RLU and 8653.97 RLU and 8624.56 RLU
same,"raw luminescence, TbERK8","10.00000 (unit uncertain) compound, sheet Kinase_glo 08142024 (2)",38026 RLU and 38805.9 RLU and 42117.7 RLU
same,"raw luminescence, TbERK8","10.00000 (unit uncertain) compound, sheet Kinase_glo_080924_IFPS (2), signal = ATP left",19789.8 RLU and 19980.7 RLU and 19481.5 RLU
same,Luminescence Raw (Kinase-Glo),"inhibitor 0.00976562 mM, sheet Sil_Pred3, read 3",32992.2 and 33121 and 33174.9
same,Luminescence Raw (Kinase-Glo),"inhibitor 0.0195312 mM, sheet Sil_Pred3, read 3",38593.5 and 41076.8 and 40952.6
same,Luminescence Raw (Kinase-Glo),"inhibitor 0.0390625 mM, sheet Sil_Pred3, read 3",46486.1 and 45877 and 46038.6
same,Luminescence Raw (Kinase-Glo),"inhibitor 0.078125 mM, sheet Sil_Pred3, read 3",44202 and 48636.7 and 49203.6
same,Luminescence Raw (Kinase-Glo),"inhibitor 0.15625 mM, sheet Sil_Pred3, read 3",45380.3 and 46230.7 and 46420.5
same,Luminescence Raw (Kinase-Glo),"inhibitor 0.3125 mM, sheet Sil_Pred3, read 3",39235.4 and 40486.4 and 39917.2
same,Luminescence Raw (Kinase-Glo),"inhibitor 0.625 mM, sheet Sil_Pred3, read 3",39298.7 and 39928.9 and 40873
same,Luminescence Raw (Kinase-Glo),"inhibitor 0.00976562, sheet Sil_Pred1, read 1",36007.1 and 35961.3 and 35122.3
same,Luminescence Raw (Kinase-Glo),"inhibitor 0.00976562, sheet Sil_Pred2, read 2",32848.9 and 34114.2 and 33997.9
same,Luminescence Raw (Kinase-Glo),"inhibitor 0.0195312, sheet Sil_Pred1, read 1",43841.6 and 45072.5 and 44815.8
same,Luminescence Raw (Kinase-Glo),"inhibitor 0.0195312, sheet Sil_Pred2, read 2",39947.1 and 42452 and 42749.7
same,Luminescence Raw (Kinase-Glo),"inhibitor 0.0390625, sheet Sil_Pred1, read 1",50695.1 and 50667.6 and 49805.8
same,Luminescence Raw (Kinase-Glo),"inhibitor 0.0390625, sheet Sil_Pred2, read 2",46810.4 and 47329.1 and 47238.4
same,Luminescence Raw (Kinase-Glo),"inhibitor 0.078125, sheet Sil_Pred1, read 1",49017.3 and 54222.7 and 54701.7
same,Luminescence Raw (Kinase-Glo),"inhibitor 0.078125, sheet Sil_Pred2, read 2",44868.4 and 49845.5 and 51285.2
same,Luminescence Raw (Kinase-Glo),"inhibitor 0.15625, sheet Sil_Pred1, read 1",51194.8 and 52235.4 and 51680.7
same,Luminescence Raw (Kinase-Glo),"inhibitor 0.15625, sheet Sil_Pred2, read 2",47366.3 and 47915.2 and 47922.2
same,Luminescence Raw (Kinase-Glo),"inhibitor 0.3125, sheet Sil_Pred1, read 1",44343.6 and 45716.6 and 43953.9
same,Luminescence Raw (Kinase-Glo),"inhibitor 0.3125, sheet Sil_Pred2, read 2",41235.6 and 41775.2 and 41631
same,Luminescence Raw (Kinase-Glo),"inhibitor 0.625, sheet Sil_Pred1, read 1",43960.8 and 44712.6 and 44414.7
same,Luminescence Raw (Kinase-Glo),"inhibitor 0.625, sheet Sil_Pred2, read 2",40144.8 and 41517 and 41924
